Assay results published in ChEMBL document CHEMBL4507284, “Data for DCP probe BI-1230” (2021).
pKi: −log10 of the molar value.

Tests used:
[1] = target: Cathepsin S (Homo sapiens) (UniProt P25774); assay: Cathepsin S (h) Eurofins-Cerep enzyme and uptake assay; conditions: Compound concentration 10.0 uM
[2] = target: Cathepsin B (Homo sapiens) (UniProt P07858); assay: Cathepsin B (h) Eurofins-Cerep enzyme and uptake assay; conditions: Compound concentration 10.0 uM
[3] = target: Muscarinic acetylcholine receptor M5 (Homo sapiens) (UniProt P08912); conditions: Compound concentration 10.0 uM
[4] = target: Sodium-dependent dopamine transporter (Homo sapiens) (UniProt Q01959); conditions: Compound concentration 10.0 uM
[5] = target: Alpha-2B adrenergic receptor (Homo sapiens, UniProt P18089); assay: GPCRScan assay: inhibition of Alpha2B; design: radioligand conc. used [nm] 1.5 – 2.0, parental cells HEKT
[6] = target: Prothrombin (Homo sapiens) (UniProt P00734); assay: Thrombin(h) Eurofins-Cerep enzyme and uptake assay; conditions: Compound concentration 10.0 uM
[7] = target: Interstitial collagenase (Homo sapiens) (UniProt P03956); assay: MMP-1 (h) Eurofins-Cerep enzyme and uptake assay; conditions: Compound concentration 10.0 uM
[8] = target: Mitogen-activated protein kinase kinase kinase 1 (Homo sapiens) (UniProt Q13233); conditions: Compound concentration 1000.0 nM
[9] = target: 72 kDa type IV collagenase (Homo sapiens) (UniProt P08253); assay: MMP-2 (h) Eurofins-Cerep enzyme and uptake assay; conditions: Compound concentration 10.0 uM
Trypsin (Homo sapiens) = Trypsin (Homo sapiens) (UniProt P07477+P07478+P35030); assay: Trypsin (h) Eurofins-Cerep enzyme and uptake assay; type: protein assay; conditions: Compound concentration 10.0 uM
Caspase-2 (Homo sapiens) = Caspase-2 (Homo sapiens) (UniProt P42575); assay: Caspase-2 (h) Eurofins-Cerep enzyme and uptake assay; conditions: Compound concentration 10.0 uM
[10] = target: 5-hydroxytryptamine receptor 1A (Homo sapiens) (UniProt P08908); conditions: Compound concentration 10.0 uM
[11] = target: Endothelin-converting enzyme 1 (Homo sapiens) (UniProt P42892); assay: ECE-1 (h) Eurofins-Cerep enzyme and uptake assay; conditions: Compound concentration 10.0 uM
[12] = target: Dipeptidyl peptidase 4 (Homo sapiens) (UniProt P27487); assay: Dipeptidyl peptidase IV (h) (DPP-IV) Eurofins-Cerep enzyme and uptake assay; conditions: Compound concentration 10.0 uM
[13] = target: Inhibitor of nuclear factor kappa-B kinase subunit epsilon (Homo sapiens) (UniProt Q14164); conditions: Compound concentration 1000.0 nM
Caspase-6 (Homo sapiens) = Caspase-6 (Homo sapiens) (UniProt P55212); assay: Caspase-6 (h) Eurofins-Cerep enzyme and uptake assay; conditions: Compound concentration 10.0 uM
[14] = target: Matrilysin (Homo sapiens) (UniProt P09237); assay: MMP-7 (h) Eurofins-Cerep enzyme and uptake assay; conditions: Compound concentration 10.0 uM
Chymase (Homo sapiens) = Chymase (Homo sapiens) (UniProt P23946); assay: Chymase (h) Eurofins-Cerep enzyme and uptake assay; conditions: Compound concentration 10.0 uM
[15] = target: Proteinase-activated receptor 1 (Homo sapiens) (UniProt P25116); assay: PAR1 (h) Eurofins-Cerep Cellular and Nuclear Receptor Functional Assays; conditions: Compound concentration 10.0 uM
[16] = target: Protease (Human immunodeficiency virus 1) (UniProt Q9YQ12); assay: HIV-1 protease Eurofins-Cerep enzyme and uptake assay; conditions: Compound concentration 10.0 uM
[17] = target: Neutrophil collagenase (Homo sapiens) (UniProt P22894); assay: MMP-8 (h) Eurofins-Cerep enzyme and uptake assay; conditions: Compound concentration 10.0 uM
[18] = target: Cathepsin D (Homo sapiens) (UniProt P07339); assay: Cathepsin D (h) Eurofins-Cerep enzyme and uptake assay; conditions: Compound concentration 10.0 uM
[19] = target: Beta-secretase 1 (Homo sapiens) (UniProt P56817); assay: BACE-1 (h) (β-secretase) Eurofins-Cerep enzyme and uptake assay; conditions: Compound concentration 10.0 uM
[20] = target: Procathepsin L (Homo sapiens) (UniProt P07711); assay: Cathepsin L (h) Eurofins-Cerep enzyme and uptake assay; conditions: Compound concentration 10.0 uM
[21] = target: Cathepsin Z (Homo sapiens) (UniProt Q9UBR2); assay: Cathepsin X (h) Eurofins-Cerep enzyme and uptake assay; conditions: Compound concentration 10.0 uM
[22] = target: Macrophage metalloelastase (Homo sapiens) (UniProt P39900); assay: MMP-12 (h) Eurofins-Cerep enzyme and uptake assay; conditions: Compound concentration 10.0 uM
[23] = target: Collagenase 3 (Homo sapiens) (UniProt P45452); assay: MMP-13 (h) Eurofins-Cerep enzyme and uptake assay; conditions: Compound concentration 10.0 uM
[24] = target: Serine/threonine-protein kinase 36 (Homo sapiens) (UniProt Q9NRP7); conditions: Compound concentration 1000.0 nM
Caspase-1 (Homo sapiens) = Caspase-1 (Homo sapiens) (UniProt P29466); assay: Caspase-1 (h) Eurofins-Cerep enzyme and uptake assay; conditions: Compound concentration 10.0 uM
[25] = target: Beta-3 adrenergic receptor (Homo sapiens, UniProt P13945); assay: GPCRScan assay: inhibition of Beta3; design: radioligand conc. used [nm] 0.2 – 0.5, parental cells HEK Flp-In
[26] = target: Pro-cathepsin H (Homo sapiens) (UniProt P09668); assay: Cathepsin H (h) Eurofins-Cerep enzyme and uptake assay; conditions: Compound concentration 10.0 uM
[27] = target: Stromelysin-1 (Homo sapiens) (UniProt P08254); assay: MMP-3 (h) Eurofins-Cerep enzyme and uptake assay; conditions: Compound concentration 10.0 uM
[28] = target: Matrix metalloproteinase-14 (Homo sapiens) (UniProt P50281); assay: MT1-MMP (h) (MMP-14) Eurofins-Cerep enzyme and uptake assay; conditions: Compound concentration 10.0 uM
[29] = target: Angiotensin-converting enzyme 2 (Homo sapiens) (UniProt Q9BYF1); assay: ACE-2 (h) Eurofins-Cerep enzyme and uptake assay; conditions: Compound concentration 10.0 uM
Tryptase (Homo sapiens) = Tryptase (Homo sapiens) (UniProt Q9BZJ3+Q15661+Q9NRR2); assay: Tryptase (h) Eurofins-Cerep enzyme and uptake assay; type: protein assay; conditions: Compound concentration 10.0 uM
[30] = target: Disintegrin and metalloproteinase domain-containing protein 17 (Homo sapiens) (UniProt P78536); assay: TACE (h) Eurofins-Cerep enzyme and uptake assay; conditions: Compound concentration 10.0 uM
[31] = target: Alpha-1D adrenergic receptor (Homo sapiens) (UniProt P25100); conditions: Compound concentration 10.0 uM
Caspase-7 (Homo sapiens) = Caspase-7 (Homo sapiens) (UniProt P55210); assay: Caspase-7 (h) Eurofins-Cerep enzyme and uptake assay; conditions: Compound concentration 10.0 uM
[32] = target: D(2) dopamine receptor (Homo sapiens) (UniProt P14416); conditions: Compound concentration 10.0 uM
[33] = target: Alpha-1B adrenergic receptor (Homo sapiens) (UniProt P35368); conditions: Compound concentration 10.0 uM
[34] = target: T1, GABA-A receptor; anion channel (Rattus norvegicus) (UniProt O09028+P15431+P18506+P18508+P19969+P20236+P23574+P23576+P28471+P28473+P30191+P62813+P63079+P63138+Q91ZM7+Q9ES14); conditions: Compound concentration 10.0 uM
[35] = target: T1, GABA-A receptor; anion channel (Rattus norvegicus); conditions: Compound concentration 10.0 uM; remark: listed apart in the source
[36] = target: 5-hydroxytryptamine receptor 3A (Homo sapiens) (UniProt P46098); conditions: Compound concentration 10.0 uM
[37] = target: Histamine H3 receptor (Homo sapiens) (UniProt Q9Y5N1); conditions: Compound concentration 10.0 uM
[38] = target: 5-hydroxytryptamine receptor 6 (Homo sapiens) (UniProt P50406); conditions: Compound concentration 10.0 uM

Mitogen-activated protein kinase kinase kinase 1 (Homo sapiens), sequence (Q13233 whole entry): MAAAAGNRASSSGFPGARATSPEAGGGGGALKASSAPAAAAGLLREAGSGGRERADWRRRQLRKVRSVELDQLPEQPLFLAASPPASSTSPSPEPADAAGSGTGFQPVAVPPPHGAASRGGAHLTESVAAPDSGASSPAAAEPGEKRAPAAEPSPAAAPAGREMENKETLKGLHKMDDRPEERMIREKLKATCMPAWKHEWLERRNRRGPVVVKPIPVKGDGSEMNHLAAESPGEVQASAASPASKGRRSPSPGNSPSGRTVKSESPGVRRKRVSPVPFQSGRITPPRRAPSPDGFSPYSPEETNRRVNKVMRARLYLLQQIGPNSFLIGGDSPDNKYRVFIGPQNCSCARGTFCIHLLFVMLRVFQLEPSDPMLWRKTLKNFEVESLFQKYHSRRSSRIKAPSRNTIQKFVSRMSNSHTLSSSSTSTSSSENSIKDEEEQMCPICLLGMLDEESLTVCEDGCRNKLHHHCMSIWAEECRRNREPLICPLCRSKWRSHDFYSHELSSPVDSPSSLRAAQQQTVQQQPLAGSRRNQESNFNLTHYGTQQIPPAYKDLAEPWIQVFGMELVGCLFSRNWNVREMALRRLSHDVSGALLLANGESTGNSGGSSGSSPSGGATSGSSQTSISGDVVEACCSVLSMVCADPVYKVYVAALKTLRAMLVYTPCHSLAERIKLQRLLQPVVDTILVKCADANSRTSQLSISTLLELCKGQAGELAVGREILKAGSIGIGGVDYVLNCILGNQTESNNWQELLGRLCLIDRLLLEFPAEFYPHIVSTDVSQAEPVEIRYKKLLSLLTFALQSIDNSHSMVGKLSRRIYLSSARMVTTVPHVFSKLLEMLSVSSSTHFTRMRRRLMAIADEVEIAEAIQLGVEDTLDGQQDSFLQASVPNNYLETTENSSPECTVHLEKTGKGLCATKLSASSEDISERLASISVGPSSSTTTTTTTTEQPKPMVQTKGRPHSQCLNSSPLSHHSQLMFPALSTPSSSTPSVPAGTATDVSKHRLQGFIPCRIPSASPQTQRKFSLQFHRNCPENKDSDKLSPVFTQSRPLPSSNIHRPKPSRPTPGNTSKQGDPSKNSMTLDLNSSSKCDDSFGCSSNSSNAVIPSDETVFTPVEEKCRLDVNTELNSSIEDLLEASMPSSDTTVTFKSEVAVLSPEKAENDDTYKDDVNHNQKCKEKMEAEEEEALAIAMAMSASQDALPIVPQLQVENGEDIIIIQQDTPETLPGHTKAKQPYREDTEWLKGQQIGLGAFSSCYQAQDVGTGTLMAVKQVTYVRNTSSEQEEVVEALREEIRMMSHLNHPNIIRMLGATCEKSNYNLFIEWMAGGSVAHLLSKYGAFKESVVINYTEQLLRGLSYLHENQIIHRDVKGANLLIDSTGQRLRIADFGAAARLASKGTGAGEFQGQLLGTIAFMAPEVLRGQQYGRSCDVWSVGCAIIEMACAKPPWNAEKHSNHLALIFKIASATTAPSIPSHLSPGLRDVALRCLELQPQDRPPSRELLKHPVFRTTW
Inhibitor of nuclear factor kappa-B kinase subunit epsilon (Homo sapiens), sequence (Q14164 whole entry): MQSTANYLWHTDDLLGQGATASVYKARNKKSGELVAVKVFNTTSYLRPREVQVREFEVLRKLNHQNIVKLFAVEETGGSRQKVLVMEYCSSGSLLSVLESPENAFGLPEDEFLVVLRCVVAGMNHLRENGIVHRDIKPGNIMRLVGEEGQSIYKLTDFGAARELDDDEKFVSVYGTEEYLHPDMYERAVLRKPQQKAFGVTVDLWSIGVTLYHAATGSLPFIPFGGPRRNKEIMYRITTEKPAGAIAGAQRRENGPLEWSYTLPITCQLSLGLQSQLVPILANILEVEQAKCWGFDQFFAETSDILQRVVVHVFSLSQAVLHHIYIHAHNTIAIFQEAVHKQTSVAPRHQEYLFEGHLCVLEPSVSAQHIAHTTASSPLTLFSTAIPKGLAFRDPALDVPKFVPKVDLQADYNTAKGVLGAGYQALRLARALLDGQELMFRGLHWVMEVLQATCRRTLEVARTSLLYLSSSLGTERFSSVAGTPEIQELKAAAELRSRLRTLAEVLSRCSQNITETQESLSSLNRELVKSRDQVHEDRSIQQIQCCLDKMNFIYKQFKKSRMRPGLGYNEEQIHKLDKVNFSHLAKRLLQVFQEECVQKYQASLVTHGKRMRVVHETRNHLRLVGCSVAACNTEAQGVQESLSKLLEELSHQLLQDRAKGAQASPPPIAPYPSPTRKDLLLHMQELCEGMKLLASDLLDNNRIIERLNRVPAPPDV
Serine/threonine-protein kinase 36 (Homo sapiens), sequence (Q9NRP7 whole entry): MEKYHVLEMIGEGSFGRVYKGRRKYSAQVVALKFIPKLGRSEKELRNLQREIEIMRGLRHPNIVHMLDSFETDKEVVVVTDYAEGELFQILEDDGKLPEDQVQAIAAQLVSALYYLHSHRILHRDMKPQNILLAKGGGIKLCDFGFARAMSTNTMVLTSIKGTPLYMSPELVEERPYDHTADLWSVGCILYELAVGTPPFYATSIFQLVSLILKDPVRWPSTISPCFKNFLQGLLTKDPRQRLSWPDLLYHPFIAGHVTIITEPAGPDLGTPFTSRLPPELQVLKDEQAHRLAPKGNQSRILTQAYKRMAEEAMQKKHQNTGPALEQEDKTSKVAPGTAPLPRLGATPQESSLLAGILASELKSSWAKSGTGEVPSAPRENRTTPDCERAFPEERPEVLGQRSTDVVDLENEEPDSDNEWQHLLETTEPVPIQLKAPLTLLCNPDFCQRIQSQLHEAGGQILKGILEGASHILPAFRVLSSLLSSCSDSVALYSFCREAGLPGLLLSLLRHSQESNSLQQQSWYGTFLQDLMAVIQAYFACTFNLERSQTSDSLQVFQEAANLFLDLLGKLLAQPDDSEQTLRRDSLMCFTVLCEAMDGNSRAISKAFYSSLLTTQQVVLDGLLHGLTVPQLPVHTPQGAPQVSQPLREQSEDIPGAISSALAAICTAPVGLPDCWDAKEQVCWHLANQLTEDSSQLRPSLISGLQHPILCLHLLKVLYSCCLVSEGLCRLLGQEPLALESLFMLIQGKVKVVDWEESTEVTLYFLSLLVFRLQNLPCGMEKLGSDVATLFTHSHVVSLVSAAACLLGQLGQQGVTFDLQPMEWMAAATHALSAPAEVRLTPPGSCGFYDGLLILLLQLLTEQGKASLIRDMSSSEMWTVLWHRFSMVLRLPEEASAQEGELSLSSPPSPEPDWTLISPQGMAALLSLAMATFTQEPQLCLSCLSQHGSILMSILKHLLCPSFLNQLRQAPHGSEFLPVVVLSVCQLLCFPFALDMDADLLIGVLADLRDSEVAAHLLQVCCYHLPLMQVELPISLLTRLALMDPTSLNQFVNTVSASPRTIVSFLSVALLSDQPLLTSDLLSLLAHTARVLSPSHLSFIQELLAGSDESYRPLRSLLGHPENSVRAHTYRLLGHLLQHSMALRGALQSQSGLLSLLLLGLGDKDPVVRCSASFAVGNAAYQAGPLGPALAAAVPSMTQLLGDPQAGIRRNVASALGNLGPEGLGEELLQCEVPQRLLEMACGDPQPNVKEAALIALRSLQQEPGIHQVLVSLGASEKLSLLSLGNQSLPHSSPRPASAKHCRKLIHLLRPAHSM
Proteinase-activated receptor 1 (Homo sapiens), sequence (P25116 whole entry): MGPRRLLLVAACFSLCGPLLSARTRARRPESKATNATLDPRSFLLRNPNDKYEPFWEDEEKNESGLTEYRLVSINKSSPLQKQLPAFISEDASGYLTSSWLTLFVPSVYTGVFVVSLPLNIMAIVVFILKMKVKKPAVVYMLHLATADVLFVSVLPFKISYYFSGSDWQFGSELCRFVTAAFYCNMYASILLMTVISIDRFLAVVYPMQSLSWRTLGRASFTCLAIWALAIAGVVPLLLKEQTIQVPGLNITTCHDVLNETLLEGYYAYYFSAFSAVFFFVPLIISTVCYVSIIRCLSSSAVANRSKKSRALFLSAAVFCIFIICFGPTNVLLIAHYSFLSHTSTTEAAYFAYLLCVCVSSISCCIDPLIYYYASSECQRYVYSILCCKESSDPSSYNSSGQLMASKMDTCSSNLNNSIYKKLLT
Caspase-7 (Homo sapiens), sequence (P55210 24-198 limits assumed): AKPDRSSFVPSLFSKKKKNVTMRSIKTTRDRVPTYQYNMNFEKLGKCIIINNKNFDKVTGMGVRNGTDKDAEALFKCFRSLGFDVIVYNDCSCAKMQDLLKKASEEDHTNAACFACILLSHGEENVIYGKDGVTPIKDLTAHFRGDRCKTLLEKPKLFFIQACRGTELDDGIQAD
Caspase-7 (Homo sapiens), sequence (P55210 207-303 limits assumed): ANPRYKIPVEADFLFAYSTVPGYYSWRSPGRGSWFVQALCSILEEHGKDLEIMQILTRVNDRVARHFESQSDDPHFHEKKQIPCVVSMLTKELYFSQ
Neutrophil collagenase (Homo sapiens), sequence (P22894 101-467 limits assumed): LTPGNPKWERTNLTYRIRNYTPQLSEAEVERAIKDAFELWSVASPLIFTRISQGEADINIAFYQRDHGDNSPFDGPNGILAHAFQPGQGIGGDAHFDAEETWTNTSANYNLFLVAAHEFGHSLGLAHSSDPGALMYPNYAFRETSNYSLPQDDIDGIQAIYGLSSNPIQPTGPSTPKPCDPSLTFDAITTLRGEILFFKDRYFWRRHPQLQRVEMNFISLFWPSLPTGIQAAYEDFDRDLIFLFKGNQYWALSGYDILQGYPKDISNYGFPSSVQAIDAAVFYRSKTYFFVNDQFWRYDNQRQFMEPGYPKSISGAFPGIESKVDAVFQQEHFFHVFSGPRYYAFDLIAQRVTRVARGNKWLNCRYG
Chymase (Homo sapiens), sequence (P23946 whole entry): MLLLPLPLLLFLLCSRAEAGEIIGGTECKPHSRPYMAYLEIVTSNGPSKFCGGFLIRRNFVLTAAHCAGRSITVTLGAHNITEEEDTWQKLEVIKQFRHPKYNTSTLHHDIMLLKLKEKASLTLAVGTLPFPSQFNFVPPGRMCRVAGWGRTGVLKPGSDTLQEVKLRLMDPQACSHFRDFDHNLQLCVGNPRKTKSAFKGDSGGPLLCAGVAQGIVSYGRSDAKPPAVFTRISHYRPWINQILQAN
Protease (Human immunodeficiency virus 1), sequence (Q9YQ12 as listed by the source): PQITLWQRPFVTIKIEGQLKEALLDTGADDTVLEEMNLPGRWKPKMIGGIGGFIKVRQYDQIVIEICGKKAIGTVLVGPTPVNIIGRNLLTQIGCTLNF

Work on COc1ccc2c(O[C@@H]3C[C@H]4C(=O)N[C@]5(C(=O)O)CC5/C=C\CCCCC[C@H](NC(=O)OC5CCCC5)C(=O)N4C3)cc(-c3csc(NC(=O)C(C)C)n3)nc2c1C (some centres undefined) [BI 1230] yielded a % Inhibition of Control Values [1] of 27%, a % Inhibition of Control Values [2] of -1.7% and an inhibition [3] of 3.15%. It also gave an inhibition [4] of 17.4%, a pKi [5] of 5.35 and a % Inhibition of Control Values [6] of 3.5%. It also gave a % Inhibition of Control Values [7] of 23.1%, a residual activity [8] of 82% and a % Inhibition of Control Values [9] of 54.8%. The % Inhibition of Control Values (Trypsin (Homo sapiens)) was 29.8%, the % Inhibition of Control Values (Caspase-2 (Homo sapiens)) was 44.5% and the inhibition [10] was -6.16%. The % Inhibition of Control Values [11] was 14.3%, the % Inhibition of Control Values [12] was 4% and the residual activity [13] was 82%. For the same compound, the % Inhibition of Control Values (Caspase-6 (Homo sapiens)) was 10.3%, the % Inhibition of Control Values [14] was 23.4% and the % Inhibition of Control Values (Chymase (Homo sapiens)) was 21.2%. It also gave a % Inhibition of Control Agonist Response [15] of 59.6%, a % of Control Agonist Response [15] of -0.9% and a % Inhibition of Control Values [16] of 48.2%. The % Inhibition of Control Values [17] was 125%, the % Inhibition of Control Values [18] was -2.2% and the % Inhibition of Control Values [19] was 90.6%. It also gave a % Inhibition of Control Values [20] of 13.6%, a % Inhibition of Control Values [21] of 12.3% and a % Inhibition of Control Values [22] of 73.8%. The % Inhibition of Control Values [23] was 281%, the residual activity [24] was 93% and the % Inhibition of Control Values (Caspase-1 (Homo sapiens)) was -23.1%. It also gave a pKi [25] of 5.44, a % Inhibition of Control Values [26] of -8.1% and a % Inhibition of Control Values [27] of 28%. The % Inhibition of Control Values [28] was 59.2%, the % Inhibition of Control Values [29] was -54.7% and the % Inhibition of Control Values (Tryptase (Homo sapiens)) was 6.9%. It also gave a % Inhibition of Control Values [30] of 63.7%, an inhibition [31] of 20.5% and a % Inhibition of Control Values (Caspase-7 (Homo sapiens)) of 40.6%. The inhibition [32] was 4.88%.
O=C(N[C@H]1CCCCC/C=C\C2C[C@@]2(C(=O)O)NC(=O)[C@@H]2C[C@@H](Oc3ccncc3)CN2C1=O)OC1CCCC1 (some centres undefined) [BI 1675] showed an inhibition [33] of -7.2%, an inhibition [34] of 8.04% and an inhibition [35] of -5.88%. For the same compound, the residual activity [8] was 84%, the residual activity [13] was 100% and the residual activity [24] was 85%. The inhibition [36] was -8.48%, the inhibition [37] was 2.64% and the inhibition [38] was -7.71%.
